# From ChEMBL document CHEMBL3232846, “Synthesis and discovery of highly functionalized mono- and bis-spiro-pyrrolidines as potent cholinesterase enzyme inhibitors” (Bioorg Med Chem Lett, 2014)
# Assays:
# [1] = Selectivity ratio of IC50 for equine serum BChE to IC50 for electric eel AChE
# [2] = Selectivity ratio of IC50 for electric eel AChE to IC50 for equine serum BChE
# [3] = target: Cholinesterase (Equus caballus, UniProt P81908); assay: Inhibition of equine serum BChE using S-butyrylthiocholine chloride as substrate preincubated for 15 mins by spectrophotometer analysis
# Cholinesterase, sequence (P81908 whole entry): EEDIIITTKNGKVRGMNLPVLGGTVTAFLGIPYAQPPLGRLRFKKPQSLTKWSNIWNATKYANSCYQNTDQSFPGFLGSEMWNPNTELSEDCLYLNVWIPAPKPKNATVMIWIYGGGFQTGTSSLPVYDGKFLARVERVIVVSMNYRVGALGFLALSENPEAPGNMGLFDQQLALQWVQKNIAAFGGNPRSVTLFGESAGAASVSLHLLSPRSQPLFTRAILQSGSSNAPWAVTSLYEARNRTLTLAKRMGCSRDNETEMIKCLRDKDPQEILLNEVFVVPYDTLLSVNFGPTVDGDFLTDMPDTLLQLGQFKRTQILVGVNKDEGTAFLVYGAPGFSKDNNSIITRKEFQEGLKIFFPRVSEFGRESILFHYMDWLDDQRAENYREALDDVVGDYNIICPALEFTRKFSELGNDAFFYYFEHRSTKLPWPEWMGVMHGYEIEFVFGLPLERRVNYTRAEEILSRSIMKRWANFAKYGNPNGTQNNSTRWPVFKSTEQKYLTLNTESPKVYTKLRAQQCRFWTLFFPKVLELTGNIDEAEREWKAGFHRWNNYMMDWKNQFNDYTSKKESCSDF
# [4] = target: Acetylcholinesterase (Electrophorus electricus, UniProt O42275); assay: Inhibition of electric eel AChE using acetylthiocholine iodide as substrate preincubated for 15 mins by spectrophotometer analysis
# Acetylcholinesterase, sequence (O42275 whole entry): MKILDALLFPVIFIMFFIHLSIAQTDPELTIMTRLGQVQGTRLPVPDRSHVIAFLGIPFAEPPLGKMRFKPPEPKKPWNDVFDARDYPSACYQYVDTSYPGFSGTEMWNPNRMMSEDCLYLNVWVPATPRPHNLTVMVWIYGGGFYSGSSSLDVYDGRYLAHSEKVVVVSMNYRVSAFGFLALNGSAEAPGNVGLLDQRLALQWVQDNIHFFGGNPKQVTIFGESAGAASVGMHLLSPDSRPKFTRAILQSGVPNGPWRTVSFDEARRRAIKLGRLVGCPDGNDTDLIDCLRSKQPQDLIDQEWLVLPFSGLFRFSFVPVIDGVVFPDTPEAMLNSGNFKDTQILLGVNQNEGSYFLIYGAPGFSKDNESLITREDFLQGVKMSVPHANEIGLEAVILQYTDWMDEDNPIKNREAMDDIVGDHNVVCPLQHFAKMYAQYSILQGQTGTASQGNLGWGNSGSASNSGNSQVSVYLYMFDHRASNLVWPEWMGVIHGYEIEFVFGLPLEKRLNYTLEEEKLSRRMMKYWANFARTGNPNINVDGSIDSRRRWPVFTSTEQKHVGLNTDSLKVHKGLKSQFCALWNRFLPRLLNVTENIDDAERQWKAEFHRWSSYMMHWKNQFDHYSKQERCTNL
SMILES,Ratio IC50 [1],Ratio IC50 [2],IC50 [3] [µM],IC50 [4] [µM]
O=C(C1CC(c2ccccc2)NC12C(=O)Nc1ccccc12)N1C/C(=C\c2ccc(Cl)cc2)C(=O)C2(C1)C(c1ccc(Cl)cc1)C(c1ccccc1)NC21C(=O)Nc2ccccc21 (racemic),2.25,0.44,27.8,12.3
O=C(C1CC(c2ccccc2)NC12C(=O)Nc1ccccc12)N1C/C(=C\c2ccccc2Cl)C(=O)C2(C1)C(c1ccccc1Cl)C(c1ccccc1)NC21C(=O)Nc2ccccc21 (racemic),1.56,0.64,17.6,11.3
O=C(C1CC(c2ccccc2)NC12C(=O)Nc1ccccc12)N1C/C(=C\c2cccc([N+](=O)[O-])c2)C(=O)C2(C1)C(c1cccc([N+](=O)[O-])c1)C(c1ccccc1)NC21C(=O)Nc2ccccc21 (racemic),1.05,0.95,17.6,16.8
O=C(C1CC(c2ccccc2)NC12C(=O)Nc1ccccc12)N1C/C(=C\c2ccc(Cl)cc2Cl)C(=O)C2(C1)C(c1ccc(Cl)cc1Cl)C(c1ccccc1)NC21C(=O)Nc2ccccc21 (racemic),3.06,0.33,26.3,8.61
C=CC(=O)N1C/C(=C\c2ccc(C)cc2)C(=O)C2(C1)C(c1ccc(C)cc1)C(c1ccccc1)NC21C(=O)Nc2ccccc21 (racemic),0.4,2.48,5.87,14.6
C=CC(=O)N1C/C(=C\c2ccccc2)C(=O)C2(C1)C(c1ccccc1)C(c1ccccc1)NC21C(=O)Nc2ccccc21 (racemic),2.69,0.37,12.3,4.57
Cc1ccc(/C=C2\CN(C(=O)C3CC(c4ccccc4)NC34C(=O)Nc3ccccc34)CC3(C2=O)C(c2ccc(C)cc2)C(c2ccccc2)NC32C(=O)Nc3ccccc32)cc1 (racemic),0.98,1.02,19.8,20.2
C=CC(=O)N1C/C(=C\c2ccc(Cl)cc2)C(=O)C2(C1)C(c1ccc(Cl)cc1)C(c1ccccc1)NC21C(=O)Nc2ccccc21 (racemic),1.9,0.53,8.75,4.61
C=CC(=O)N1C/C(=C\c2ccccc2Cl)C(=O)C2(C1)C(c1ccccc1Cl)C(c1ccccc1)NC21C(=O)Nc2ccccc21 (racemic),13.2,0.08,22.2,1.68
C=CC(=O)N1C/C(=C\c2ccc(F)cc2)C(=O)C2(C1)C(c1ccc(F)cc1)C(c1ccccc1)NC21C(=O)Nc2ccccc21 (racemic),0.46,2.17,2.75,5.98
C=CC(=O)N1C/C(=C\c2ccc(Cl)cc2Cl)C(=O)C2(C1)C(c1ccc(Cl)cc1Cl)C(c1ccccc1)NC21C(=O)Nc2ccccc21 (racemic),4.4,0.23,27.1,6.16
COc1ccccc1/C=C1\CN(C(=O)C2CC(c3ccccc3)NC23C(=O)Nc2ccccc23)CC2(C1=O)C(c1ccccc1OC)C(c1ccccc1)NC21C(=O)Nc2ccccc21 (racemic),3.51,0.28,32.1,9.15
C=CC(=O)N1C/C(=C\c2cccc([N+](=O)[O-])c2)C(=O)C2(C1)C(c1cccc([N+](=O)[O-])c1)C(c1ccccc1)NC21C(=O)Nc2ccccc21 (racemic),0.7,1.43,10.6,15.1
C=CC(=O)N1C/C(=C\c2cccc3ccccc23)C(=O)C2(C1)C(c1cccc3ccccc13)C(c1ccccc1)NC21C(=O)Nc2ccccc21 (racemic),6.65,0.15,13.8,2.07
C=CC(=O)N1C/C(=C\c2ccccc2OC)C(=O)C2(C1)C(c1ccccc1OC)C(c1ccccc1)NC21C(=O)Nc2ccccc21 (racemic),3.14,0.32,17.5,5.57
O=C(C1CC(c2ccccc2)NC12C(=O)Nc1ccccc12)N1C/C(=C\c2ccc(F)cc2)C(=O)C2(C1)C(c1ccc(F)cc1)C(c1ccccc1)NC21C(=O)Nc2ccccc21 (racemic),0.66,1.51,14.4,21.9
O=C(C1CC(c2ccccc2)NC12C(=O)Nc1ccccc12)N1C/C(=C\c2cccc3ccccc23)C(=O)C2(C1)C(c1cccc3ccccc13)C(c1ccccc1)NC21C(=O)Nc2ccccc21 (racemic),2.08,0.48,19.2,9.24
Cc1ccccc1/C=C1\CN(C(=O)C2CC(c3ccccc3)NC23C(=O)Nc2ccccc23)CC2(C1=O)C(c1ccccc1C)C(c1ccccc1)NC21C(=O)Nc2ccccc21 (racemic),0.95,1.05,29.1,30.5
O=C(C1CC(c2ccccc2)NC12C(=O)Nc1ccccc12)N1C/C(=C\c2ccccc2F)C(=O)C2(C1)C(c1ccccc1F)C(c1ccccc1)NC21C(=O)Nc2ccccc21 (racemic),4.81,0.21,35.9,7.45
O=C(C1CC(c2ccccc2)NC12C(=O)Nc1ccccc12)N1C/C(=C\c2ccccc2)C(=O)C2(C1)C(c1ccccc1)C(c1ccccc1)NC21C(=O)Nc2ccccc21 (racemic),1.27,0.79,26.3,20.8
C=CC(=O)N1C/C(=C\c2ccccc2C)C(=O)C2(C1)C(c1ccccc1C)C(c1ccccc1)NC21C(=O)Nc2ccccc21 (racemic),2.13,0.47,21.8,10.2
C=CC(=O)N1C/C(=C\c2ccccc2F)C(=O)C2(C1)C(c1ccccc1F)C(c1ccccc1)NC21C(=O)Nc2ccccc21 (racemic),5.18,0.19,11.8,2.27
